Reference: patent US20230271950A1, “ANTIBACTERIAL PICOLINAMIDE COMPOUNDS” (University of Notre Dame Du Lac, priority 2020, published 2023)
Converted amounts (≈) assume the structure as drawn. Where two headings read alike, the source gives them in different places.

What was measured:
C. difficile = assay: MIC by broth microdilution against C. difficile strains; format: cell-based, Clostridioides difficile; details: for MIC: Clostridioides difficile; for Selectivity: MIC MRSA/MIC C. difficile, Table 3
MRSA (NRS70, NRS119) = assay: MIC against MRSA strains; format: cell-based, Staphylococcus aureus; details: Staphylococcus aureus
[1] = ATCC43255, C. difficile ATCC43255, FIG. 2 legend, read-out: MIC of positive controls
[2] = ATCC43255, ATCC 43255, ribotype 087, Table 3 (SAR^2 and SAR^3), read-out: MIC C. difficile
[3] = NRS70 strain, Table 3 (SAR^2 and SAR^3), read-out: MIC MRSA
[4] = ATCC43255, ATCC 43255, ribotype 087, Table 2 (SAR^1), read-out: MIC C. difficile
[5] = NRS70 strain, Table 2 (SAR^1), read-out: MIC MRSA
[6] = ATCC43255, C. difficile ATCC 43255, read-out: MIC against C. difficile
[7] = MRSA strain NRS70, read-out: MIC against MRSA

Row | MIC (C. difficile; [2]) [µg/mL] | MIC (MRSA (NRS70, NRS119); [3]) [µg/mL] | Compound | Selectivity (C. difficile) | further results
1 | ≥ 16 | 2 (≈ 5.99 µM) | O=C(Nc1ncco1)c1cccc(-c2ccc(Cl)c(Cl)c2)n1 [Compound 75, 6-(3,4-Dichlorophenyl)-N-(oxazol-2-yl)picolinamide] | ≤ 0.125 | 
2 | ≥ 16 | 64 (≈ 212 µM) | O=C(Nc1ncco1)c1cccc(-c2ccc(F)c(F)c2)n1 [Compound 80, 6-(3,4-Difluorophenyl)-N-(oxazol-2-yl)picolinamide] | ≤ 4 | 
3 | 2 (≈ 5.98 µM) | 2 (≈ 5.98 µM) | O=C(Nc1ncco1)c1ccnc(-c2cccc(C(F)(F)F)c2)n1 [Compound 85, N-(Oxazol-2-yl)-2-(3-(trifluoromethyl)phenyl)pyrimidine-4-carboxamide] | 1 | 
4 | 8 (≈ 26.7 µM) | 4 (≈ 13.3 µM) | O=C(Nc1ncco1)c1cccc(-c2cccc(Cl)c2)n1 [Compound 76, 6-(3-Chlorophenyl)-N-(oxazol-2-yl)picolinamide] | 0.5 | 
5 | 8 (≈ 25.2 µM) | 8 (≈ 25.2 µM) | O=C(Nc1ncco1)c1cccc(-c2ccc(F)c(Cl)c2)n1 [Compound 77, 6-(3-Chloro-4-fluorophenyl)-N-(oxazol-2-yl)picolinamide] | 1 | 
6 | 1 (≈ 2.98 µM) | 0.5 (≈ 1.49 µM) | O=C(Nc1ncco1)c1ccnc(-c2ccc(Cl)c(Cl)c2)n1 [Compound 83, 2-(3,4-Dichlorophenyl)-N-(oxazol-2-yl)pyrimidine-4-carboxamide] | 0.5 | 
7 | 2 (≈ 6.3 µM) | 8 (≈ 25.2 µM) | O=C(Nc1ncco1)c1cncc(-c2ccc(F)c(Cl)c2)c1 [Compound 81, 5-(3-Chloro-4-fluorophenyl)-N-(oxazol-2-yl)nicotinamide] | 4 | 
8 | 4 (≈ 13.3 µM) | 128 (≈ 427 µM) | O=C(Nc1ncco1)c1cc(-c2ccc(Cl)cc2)ccn1 [Compound 88, 4-(4-Chlorophenyl)-N-(oxazol-2-yl)picolinamide] | 32 | 
9 | 0.25 (≈ 0.716 µM) | 128 (≈ 366 µM) | O=C(Nc1ncco1)c1cc(-c2ccc(OC(F)(F)F)cc2)ccn1 [Compound 95, N-(Oxazol-2-yl)-4-(4-(trifluoromethoxy)phenyl)picolinamide] | 512 | 
10 | 0.5 (≈ 1.57 µM) | 4 (≈ 12.5 µM) | O=C(Nc1ncco1)c1cc(-c2ccc(F)c(F)c2)ncc1F [Compound 72, 2-(3,4-Difluorophenyl)-5-fluoro-N-(oxazol-2-yl)isonicotinamide] | 8 | 
11 | ≥ 16 | 32 (≈ 113 µM) | O=C(Nc1ncco1)c1cccc(-c2ccc(F)cc2)n1 [Compound 79, 6-(4-Fluorophenyl)-N-(oxazol-2-yl)picolinamide] | ≤ 2 | 
12 | 1 (≈ 3.15 µM) | 2 (≈ 6.3 µM) | O=C(Nc1ncco1)c1ccnc(-c2cccc(Cl)c2)c1F [Compound 69, 2-(3-Chlorophenyl)-3-fluoro-N-(oxazol-2-yl)isonicotinamide] | 2 | 

Continued, molecule first:

Row | Compound | MIC (C. difficile; [2]) [µg/mL] | MIC (MRSA (NRS70, NRS119); [3]) [µg/mL] | Selectivity (C. difficile) | further results
13 | CC(=O)NC[C@H]1CN(c2ccc(N3CCOCC3)c(F)c2)C(=O)O1 [linezolid, reference compound] |  |  |  | MIC (C. difficile; [1]): 2 µg/mL
14 | O=C(Nc1ncco1)c1ccnc(-c2ccccc2Cl)c1 [Compound 34, 2-(2-Chlorophenyl)-N-(oxazol-2-yl)isonicotinamide] | 4 (≈ 13.3 µM) | 8 (≈ 26.7 µM) | 2 | 
15 | O=C(Nc1ncco1)c1ccnc(-c2ccc([N+](=O)[O-])cc2)c1 [Compound 49, 2-(4-Nitrophenyl)-N-(oxazol-2-yl)isonicotinamide] | 1 (≈ 3.22 µM) | 64 (≈ 206 µM) | 64 | 
16 | COc1ccc(-c2cc(C(=O)Nc3ncco3)ccn2)cc1 [Compound 51, 2-(4-Methoxyphenyl)-N-(oxazol-2-yl)isonicotinamide] | 4 (≈ 13.5 µM) | 8 (≈ 27.1 µM) | 2 | 
17 | O=C(Nc1ncco1)c1ccnc(N2CCOCC2)c1 [Compound 62, 2-Morpholino-N-(oxazol-2-yl)isonicotinamide] | 128 (≈ 467 µM) | 128 (≈ 467 µM) | 1 | 
18 | O=C(Nc1ncco1)c1ccnc(-c2ccc(OCc3ccccc3)cc2)c1 [Compound 56, 2-(4-(Benzyloxy)phenyl)-N-(oxazol-2-yl)isonicotinamide] | 4 (≈ 10.8 µM) | 8 (≈ 21.5 µM) | 2 | 
19 | CC(C)(C)OC(=O)Nc1cccc(-c2cc(C(=O)Nc3ncco3)ccn2)c1 [Compound 59, Tert-butyl (3-(4-(oxazol-2-ylcarbamoyl)pyridin-2-yl)phenyl)carbamate] | 8 (≈ 21 µM) | 4 (≈ 10.5 µM) | 0.5 | 
20 | C#CCCCCCOC(=O)c1cnc(NC(=O)c2ccnc(-c3ccc(Cl)c(Cl)c3)c2)o1 [Compound 25, Hept-6-yn-1-yl 2-(2-(3,4-dichlorophenyl)isonicotinamido)oxazole-5-carboxylate] |  |  |  | MIC (C. difficile; [4]): 0.25 µg/mL (≈ 0.529 µM); MIC (MRSA (NRS70, NRS119); [5]): 0.06 µg/mL (≈ 0.127 µM)
21 | Cl.Cl.O=C(Nc1ncc(C(=O)N2CCNCC2)o1)c1ccnc(-c2ccc(Cl)c(Cl)c2)c1 [Compound 31, 2-(3,4-Dichlorophenyl)-N-(5-(piperazine-1-carbonyl)oxazol-2-yl)isonicotinamide dihydrochloride] |  |  |  | MIC (C. difficile; [4]): 8 µg/mL; MIC (MRSA (NRS70, NRS119); [5]): 16 µg/mL
22 | CCOC(=O)c1cnc(NC(=O)c2ccnc(-c3ccc(Cl)c(Cl)c3)c2)o1 [Compound 23, Ethyl 2-(2-(3,4-dichlorophenyl)isonicotinamido)oxazole-5-carboxylate] |  |  |  | MIC (C. difficile; [4]): 0.0625 µg/mL (≈ 0.154 µM); MIC (MRSA (NRS70, NRS119); [5]): 0.06 µg/mL (≈ 0.148 µM)
23 | O=C(Nc1ncc(C(=O)OCCCCCCO)o1)c1ccnc(-c2ccc(Cl)c(Cl)c2)c1 [Compound 26, 6-Hydroxyhexyl 2-(2-(3,4-dichlorophenyl)isonicotinamido)oxazole-5-carboxylate] |  |  |  | MIC (C. difficile; [4]): 0.25 µg/mL (≈ 0.523 µM); MIC (MRSA (NRS70, NRS119); [5]): 0.25 µg/mL (≈ 0.523 µM)
24 | O=C(Nc1ncco1)c1ccnc(OCCC(F)(F)F)c1 [Compound 65, N-(Oxazol-2-yl)-2-(3,3,3-trifluoropropoxy)isonicotinamide] | 4 (≈ 13.3 µM) | 8 (≈ 26.6 µM) | 2 | 
25 | O=C(Nc1ncco1)c1ccnc(-c2cc(F)cc(F)c2)c1 [Compound 42, 2-(3,5-Difluorophenyl)-N-(oxazol-2-yl)isonicotinamide] | 0.5 (≈ 1.66 µM) | 8 (≈ 26.6 µM) | 16 | 
26 | O=C(Nc1ncco1)c1ccnc(-c2ccc(F)c(Cl)c2)c1F [Compound 67, 2-(3-Chloro-4-fluorophenyl)-3-fluoro-N-(oxazol-2-yl)isonicotinamide] | 1 (≈ 2.98 µM) | 1 (≈ 2.98 µM) | 1 | 
27 | O=C(Nc1ncco1)c1ccnc(-c2cccc(OCc3ccccc3)c2)c1 [Compound 57, 2-(3-(Benzyloxy)phenyl)-N-(oxazol-2-yl)isonicotinamide] | 0.5 (≈ 1.35 µM) | 1 (≈ 2.69 µM) | 2 | 
28 | CCOC(=O)c1coc(NC(=O)c2ccnc(-c3ccc(Cl)c(Cl)c3)c2)n1 [Compound 15, Ethyl 2-(2-(3,4-dichlorophenyl)isonicotinamido)oxazole-4-carboxylate] |  |  |  | MIC (C. difficile; [4]): 0.125 µg/mL (≈ 0.308 µM); MIC (MRSA (NRS70, NRS119); [5]): 1 µg/mL (≈ 2.46 µM)
29 | O=C(Nc1ncco1)c1ccnc(C(F)(F)F)c1 [Compound 63, N-(Oxazol-2-yl)-2-(trifluoromethyl)isonicotinamide] | 4 (≈ 15.6 µM) | 16 (≈ 62.2 µM) | 4 | 
30 | O=C(Nc1ncc(C(=O)O)o1)c1ccnc(-c2ccc(Cl)c(Cl)c2)c1 [Compound 24, 2-(2-(3,4-Dichlorophenyl)isonicotinamido)oxazole-5-carboxylic acid] |  |  |  | MIC (C. difficile; [4]): 128 µg/mL (≈ 338 µM); MIC (MRSA (NRS70, NRS119); [5]): 64 µg/mL (≈ 169 µM)
31 | CC(C)(C)OC(=O)Nc1ccc(-c2cc(C(=O)Nc3ncco3)ccn2)cc1 [Compound 58, Tert-butyl (4-(4-(oxazol-2-ylcarbamoyl)pyridin-2-yl)phenyl)carbamate] | 8 (≈ 21 µM) | 8 (≈ 21 µM) | 1 | 
32 | O=C(Nc1ncco1)c1ccnc(-c2ccc(F)c(F)c2)c1F [Compound 68, 2-(3,4-Difluorophenyl)-3-fluoro-N-(oxazol-2-yl)isonicotinamide] | 2 (≈ 6.26 µM) | 4 (≈ 12.5 µM) | 2 | 
33 | COc1ccc(-c2cc(C(=O)Nc3ncco3)ccn2)cc1OC [Compound 53, 2-(3,4-Dimethoxyphenyl)-N-(oxazol-2-yl)isonicotinamide] | 16 (≈ 49.2 µM) | 64 (≈ 197 µM) | 4 | 
34 | COc1ccc(-c2cc(C(=O)Nc3ncco3)ccn2)cc1Cl [Compound 54, 2-(3-Chloro-4-methoxyphenyl)-N-(oxazol-2-yl)isonicotinamide] | 0.5 (≈ 1.52 µM) | 1 (≈ 3.03 µM) | 2 | 
35 | N#Cc1cccc(-c2cc(C(=O)Nc3ncco3)ccn2)c1 [Compound 55, 2-(3-Cyanophenyl)-N-(oxazol-2-yl)isonicotinamide] | 4 (≈ 13.8 µM) | 32 (≈ 110 µM) | 8 | 
36 | Cc1nnc(NC(=O)c2ccnc(-c3ccc(Cl)c(Cl)c3)c2)o1 [Compound 19, 2-(3,4-Dichlorophenyl)-N-(5-methyl-1,3,4-oxadiazol-2-yl)isonicotinamide] |  |  |  | MIC (C. difficile; [4]): 64 µg/mL (≈ 183 µM); MIC (C. difficile; [6]): ≥ 64 µg/mL; MIC (MRSA (NRS70, NRS119); [7]): ≥ 64 µg/mL; MIC (MRSA (NRS70, NRS119); [5]): ≥ 256 µg/mL
37 | O=C(Nc1ccon1)c1ccnc(-c2ccc(Cl)c(Cl)c2)c1 [Compound 18, 2-(3,4-Dichlorophenyl)-N-(isoxazol-3-yl)isonicotinamide] |  |  |  | MIC (C. difficile; [4]): ≥ 128 µg/mL; MIC (C. difficile; [6]): ≥ 64 µg/mL; MIC (MRSA (NRS70, NRS119); [7]): ≥ 64 µg/mL; MIC (MRSA (NRS70, NRS119); [5]): ≥ 256 µg/mL
38 | CO[C@H]1/C=C/O[C@@]2(C)Oc3c(C)c(O)c4c(O)c(c5c(nc6cc(C)ccn65)c4c3C2=O)NC(=O)/C(C)=C\C=C\[C@H](C)[C@H](O)[C@@H](C)[C@@H](O)[C@@H](C)[C@H](OC(C)=O)[C@@H]1C [rifaximin, reference compound] |  |  |  | MIC (C. difficile; [1]): 0.03 µg/mL
